Measured values as given in patent US6849639B2, “Integrin inhibitors and their methods of use” (Amgen Inc., priority 1999, dated 2005).
Structures can show the parent of a compound that is named as a salt.

SMILES | melting point
O=C(O)CC(NC(=O)C1CC(=O)N(c2cccc(NC(=S)NCc3ccccc3)c2)C1)c1cccnc1 (centres unmarked) (as salt: sodium) [Example 20, 3-({5-oxo-1-(3-({(benzylamino)thioxomethyl}amino)phenyl)pyrrolidin-3-yl}carbonylamino)-3-(3-pyridyl)propanoic acid, sodium salt] | 230 °C (dec.)
O=C(O)CC(NC(=O)C1CC(=O)N(c2cccc(NC(=S)NCc3ccc(F)cc3)c2)C1)c1cccnc1 (centres unmarked) (as salt: sodium) [Example 21, 3-((1-{3-(({((4-fluorophenyl)methyl)amino}thioxomethyl)amino)phenyl}-5-oxopyrrolidin-3-yl)carbonylamino)-3-(3-pyridyl)propanoic acid, sodium salt] | 230 °C (dec.)
O=C(O)CC(NC(=O)C1CC(=O)N(c2cccc(NC(=S)NCc3ccco3)c2)C1)c1cccnc1 (centres unmarked) (as salt: sodium) [Example 22, 3-({1-(3-({((2-furylmethyl)amino)thioxomethyl}amino)phenyl)-5-oxopyrrolidin-3-yl}carbonylamino)-3-(3-pyridyl)propanoic acid, sodium salt] | 240 °C (dec.)

Now from value to compound:

melting point | SMILES
250 °C (dec.) | CC(C)CCNC(=S)Nc1cccc(N2CC(C(=O)NC(CC(=O)O)c3cccnc3)CC2=O)c1 (centres unmarked) (as salt: sodium) [Example 23, 3-({1-(3-({((3-methylbutyl)amino)thiooxomethyl}amino)phenyl)-5-oxopyrroidin-3-yl}carbonylamino)-3-(3-pyridyl)propanoic acid, sodium salt]
235 °C (dec.) | CCCCNC(=S)Nc1cccc(N2CC(C(=O)NC(CC(=O)O)c3cccnc3)CC2=O)c1 (centres unmarked) (as salt: sodium) [Example 24, 3-{(1-(3-{((butylamino)thioxomethyl)amino}phenyl)-5-oxopyrrolidin-3-yl)carbonylamino}-3-(3-pyridyl)propanoic acid, sodium salt]
